According to patent US11752088B2, “Highly concentrated seawater mineral extract and uses thereof” (Oriel Seasalt Company Limited, priority 2015, dated 2023):

Assay: Flow Mediated Dilation (FMD) test
Conditions: in vivo

O=[N+]([O-])OCC(CO[N+](=O)[O-])O[N+](=O)[O-] [Nitroglycerin]
FMD reading: 10 % FMD | blood vessel diameter: 5.3 mm
